In US20180193294A1, “Dehydroabietic acid (DHAA) derivatives for use as ion channel openers” (priority 2015, published 2018):

Target: 3R Shaker K channel (Drosophila melanogaster, UniProt P08510, A359R/M356R)
Assay: physchem
Assay type: cell-based
Conditions: Table 1; 100 μM, pH 7.4, Xenopus oocytes
From the text: A 3R Shaker K channel is a modified Shaker K channel where residues 356 and 359 are mutated to arginines.
All animal experiments were approved by the local Animal Care and Use Committee and followed international guidelines. A modified Shaker H4 channel^30, with removed N-type inactivation (ShH4IR)^31, here called the wild type (WT) channel, was expressed in oocytes. In addition, a modified 3R Shaker K channel where two introduced positive charged arginines (M356R and A359R) in addition to one native arginine (R362) makes the channel more sensitive to DHA^16, was expressed in oocytes and in a CHO—K1 stable cell line.
African clawed frogs (Xenopus laevis) were anesthetized with 1.4 g/L ethyl 3-aminobenzoate methanesulfonate salt (tricaine). After an incision through the abdomen a batch of oocytes were removed. Clusters of oocytes were separated by incubation for ˜1 h in a Ca-free O—R2 solution (in mM: 82.5 NaCl, 2 KCl, 5 HEPES, and 1 MgCl2; pH adjusted to 7.4 by NaOH) containing Liberase Blendzyme. The oocytes were then incubated at 8° C. in a modified Barth's solution (MBS; in mM: 88 NaCl, 1 KCl, 2.4 NaHCO3, 15 HEPES, 0.33 Ca(NO3)2, 0.41 CaCl2, and 0.82 MgSO4; pH adjusted to 7.6 by NaOH) supplemented with penicillin (25 U/ml), streptomycin (25 μg/ml), and sodium pyruvate (2.5 mM) 2-24 hours before injection. Fifty nl of cRNA (50 pg) were injected into each oocyte using a Nanoject injector (Drummond Scientific, Broomall, Pa.). Injected oocytes were kept at 8° C. in MBS until one day before electrophysiological recordings, when they were incubated at 16° C. All chemicals were supplied from Sigma-Aldrich (Stockholm, Sweden) if not stated otherwise.
All manual electrophysiological recordings were performed at room temperature (20-23° C.), using a GeneClamp 500B amplifier (for oocytes) or a Axopatch 200B amplifier (for manual patch clamp of CHO—K1 cells and DRG neurons) and a Digidata 1440A digitizer and pClamp 10 software (all from Molecular Devices, Inc., Sunnyvale, Calif., USA). Compounds were dissolved to 100 mM in 99.5% EtOH and stored at −20° C. Compounds were diluted in extracellular solution to the desired test concentration.
The oocyte was placed in a bath surrounded by 1K extracellular solution that contained (in mM): 88 NaCl, 1 KCl, 15 HEPES, 0.4 CaCl2, and 0.8 MgCl2, pH adjusted to 7.4 by NaOH (reaching a sodium concentration of ˜100 mM). Control solution was added to the bath with a gravity driven perfusion system. Compound solution was added to the bath manually with a syringe. Two glass microelectrodes were inserted into the oocyte using micromanipulators. […] All channels were closed when the potential was clamped to −80 mV and this voltage was set as the holding potential. Currents were evoked from the holding potential of −80 mV by 100-ms long, 5-mV steps ranging from −80 up to +50 mV (WT) and +70 mV (3R).
Conductance GK(V) was calculated as GK(V)=[…], (Eq. 1) where IK is the average current from the steady-state phase at the end of each 100-ms pulse, V is the membrane voltage, and Vrev is the reversal potential for K^+, (set to −80 mV for the oocytes, and calculated to be −89 mV for the CHO—K1 cells).
G(V)=A/(1+exp((V1/2−V)/s))^n (Eq. 2) where A is amplitude of the curve, V is the absolute membrane voltage, V1/2 is the midpoint, s is the slope and n is an exponent set to 4^17. The compound-induced G(V) shift was determined at the 10% level of the maximum conductance in control solution^17. The compound-induced G(V) shift in CHO—K1 was quantified by subtracting the control V1/2 from the compound V1/2 when n was set to 1.
Data for concentration and pH dependent G(V) shifts (ΔV) in oocytes were fit with a dose-response equation ΔV=ΔVmax/(1+c1/2/c), (Eq. 3) where Δvmax is the maximal shift, c1/2 is half maximal effective concentration/pKa value and c is the concentration.

3R Shaker K channel, sequence (P08510 whole entry M356R/A359R): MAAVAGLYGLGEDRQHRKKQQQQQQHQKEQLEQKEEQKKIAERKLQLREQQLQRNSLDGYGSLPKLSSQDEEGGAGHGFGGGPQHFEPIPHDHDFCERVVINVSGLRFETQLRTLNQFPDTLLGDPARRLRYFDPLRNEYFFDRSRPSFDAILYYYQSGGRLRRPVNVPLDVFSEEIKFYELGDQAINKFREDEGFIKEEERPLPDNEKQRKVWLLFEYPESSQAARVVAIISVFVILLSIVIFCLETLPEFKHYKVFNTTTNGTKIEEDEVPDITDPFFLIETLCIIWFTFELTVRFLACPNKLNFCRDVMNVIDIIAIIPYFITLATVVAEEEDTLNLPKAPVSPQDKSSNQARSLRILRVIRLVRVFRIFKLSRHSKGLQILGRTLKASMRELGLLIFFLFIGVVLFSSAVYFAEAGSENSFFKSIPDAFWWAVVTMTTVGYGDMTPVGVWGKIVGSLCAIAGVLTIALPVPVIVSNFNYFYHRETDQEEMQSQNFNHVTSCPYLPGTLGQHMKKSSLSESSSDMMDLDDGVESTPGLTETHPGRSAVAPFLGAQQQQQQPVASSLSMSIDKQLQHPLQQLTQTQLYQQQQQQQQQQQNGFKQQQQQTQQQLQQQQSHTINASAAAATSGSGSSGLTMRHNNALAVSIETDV

SMILES | G(V) shift [mV]
CO/N=C1\CC2[C@](C)(C(=O)O)CCC[C@]2(C)c2cc(F)c(C(C)C)cc21 (stereo partly drawn) [Wu55, (1R,4aS,E)-6-fluoro-7-isopropyl-9-(methoxyimino)-1,4a-dimethyl-1,2,3,4,4a,9,10,10a-octahydrophenanthrene-1-carboxylic acid] | −19.9
CC(C)c1ccc2c(c1F)CC[C@H]1[C@](C)(C(=O)O)CCC[C@]21C [Wu56, (1R,4aS,10aR)-8-fluoro-7-isopropyl-1,4a-dimethyl-1,2,3,4,4a,9,10,10a-octahydrophenanthrene-1-carboxylic acid] | −6.6
CC(C)c1cc2c(cc1I)[C@@]1(C)CCC[C@@](C)(C(=O)O)C1CC2 (stereo partly drawn) [Wu60, (1R,4aS,E)-6-iodo-7-isopropyl-1,4a-dimethyl-1,2,3,4,4a,9,10,10a-octahydrophenanthrene-1-carboxylic acid] | −9.0
CC(C)c1ccc2c(c1I)CCC1[C@](C)(C(=O)O)CCC[C@]21C (stereo partly drawn) [Wu61, (1R,4aS,E)-8-iodo-7-isopropyl-1,4a-dimethyl-1,2,3,4,4a,9,10,10a-octahydrophenanthrene-1-carboxylic acid] | −18.3
CC(C)c1cc2c(cc1I)[C@@]1(C)CCC[C@@](C)(C(=O)O)[C@@H]1CC2=O [Wu62, (1R,4aS,10aR)-6-iodo-7-isopropyl-9-oxo-1,4a-dimethyl-1,2,3,4,4a,9,10,10a-octahydrophenanthrene-1-carboxylic acid] | −13.7
C=CCO/N=C1\CC2[C@](C)(C(=O)O)CCC[C@]2(C)c2cc(I)c(C(C)C)cc21 (stereo partly drawn) [Wu63, (1R,4aS,E)-9-((allyloxy)imino)-6-iodo-7-isopropyl-1,4a-dimethyl-1,2,3,4,4a,9,10,10a-octahydrophenanthrene-1-carboxylic acid] | −19.3
CO/N=C1\CC2[C@](C)(C(=O)O)CCC[C@]2(C)c2cc(I)c(C(C)C)cc21 (stereo partly drawn) [Wu64, (1R,4aS,E)-6-iodo-7-isopropyl-9-(methoxyimino)-1,4a-dimethyl-1,2,3,4,4a,9,10,10a-octahydrophenanthrene-1-carboxylic acid] | −22.2
CC(C)c1ccc2c(c1I)C(=O)C[C@H]1[C@](C)(C(=O)O)CCC[C@]21C [Wu68, (1R,4aS,10aR)-8-iodo-7-isopropyl-1,4a-dimethyl-9-oxo-1,2,3,4,4a,9,10,10a-octahydrophenanthrene-1-carboxylic acid] | −26.0
CC(C)c1ccc2c(c1Br)C(=O)CC1[C@](C)(C(=O)O)CCC[C@]21C (some centres unmarked) [Wu73] | −5.8
C=CCON=C1CC2C(C)(C(=O)O)CCCC2(C)c2ccc(C(C)C)c(Br)c21 (centres unmarked) [Wu75] | −8.6
C=Cc1c(C(C)C)ccc2c1CCC1[C@](C)(C(=O)O)CCC[C@]21C (some centres unmarked) [Wu76] | −7.7
C=Cc1cc2c(cc1C(C)C)CCC1[C@](C)(C(=O)O)CCC[C@]21C (stereo partly drawn) [Wu78, (1R,4aS)-7-isopropyl-1,4a-dimethyl-6-vinyl-1,2,3,4,4a,9,10,10a-octahydrophenanthrene-1-carboxylic acid] | −13.2
CC(C)c1cc2c(cc1C1CC1)[C@@]1(C)CCC[C@@](C)(C(=O)O)C1CC2 (some centres unmarked) [Wu81] | −8.2
CC=Cc1cc2c(cc1C(C)C)CCC1[C@](C)(C(=O)O)CCC[C@]21C (some centres unmarked) [Wu84] | −0.2
CC=Cc1c(C(C)C)ccc2c1CCC1[C@](C)(C(=O)O)CCC[C@]21C (some centres unmarked) [Wu85] | −1.9
CC(C)c1cc2c(cc1I)[C@@]1(C)CCC[C@@](C)(C(=O)O)C1C/C2=N\O (stereo partly drawn) [Wu86, (1R,4aS,E)-9-(hydroxyimino)-6-iodo-7-isopropyl-1,4a-dimethyl-1,2,3,4,4a,9,10,10a-octahydrophenanthrene-1-carboxylic acid] | −21.0
CC(C)c1cc2c(cc1I)C1(C)CCCC(C)(C(=O)O)C1CC2=NOCc1ccccc1 (centres unmarked) [Wu87] | −6.0
CC(C)c1ccc2c(c1Br)C(=NO)CC1C(C)(C(=O)O)CCCC21C (centres unmarked) [Wu88] | −5.6

SMILES | G(V) shift [mV]
CC(C)c1ccc2c(c1Br)C(=NOCc1ccccc1)CC1C(C)(C(=O)O)CCCC21C (centres unmarked) [Wu89] | −5.2
CO/N=C1\C[C@H]2[C@](C)(C(=O)O)CCC[C@]2(C)c2ccc(C(C)C)c(I)c21 [Wu90] | −19.2
C=CCO/N=C1\C[C@H]2[C@](C)(C(=O)O)CCC[C@]2(C)c2ccc(C(C)C)c(I)c21 [Wu91, (1R,4aS,10aR)-9-((allyloxy)imino)-8-iodo-7-isopropyl-1,4a-dimethyl-1,2,3,4,4a,9,10,10a-octahydrophenanthrene-1-carboxylic acid] | −12.5
CC(C)c1cc(Cl)c2c(c1)CCC1C(C)(C(=O)O)CCCC21C (centres unmarked) [Wu100] | −2.7
CC(C)c1cc(Cl)c2c(c1)C(O)CC1[C@](C)(C(=O)O)CCC[C@]21C (some centres unmarked) [Wu101] | −9.6
CC(C)c1cc(Cl)c2c(c1)C(O)C[C@H]1[C@](C)(C(=O)O)CCC[C@]21C (some centres unmarked) [Wu102] | −2.8
C=CCO/N=C1\C[C@H]2[C@](C)(C(=O)O)CCC[C@]2(C)c2c(Cl)cc(C(C)C)cc21 [Wu104, (1R,4aS,10aR)-9-((allyloxy)imino)-5-chloro-7-isopropyl-1,4a-dimethyl-1,2,3,4,4a,9,10,10a-octahydrophenanthrene-1-carboxylic acid] | −12.9
CO/N=C1\C[C@H]2[C@](C)(C(=O)O)CCC[C@]2(C)c2c(Cl)cc(C(C)C)cc21 [Wu105, (1R,4aS,10aR)-5-chloro-7-isopropyl-9-(methoxyimino)-1,4a-dimethyl-1,2,3,4,4a,9,10,10a-octahydrophenanthrene-1-carboxylic acid] | −23.2
CC(C)c1cc(Cl)c2c(c1O)CC[C@H]1[C@](C)(C(=O)O)CCC[C@]21C [Wu106] | −3.4
CC(C)c1cc2c(cc1F)[C@@]1(C)CCC[C@@](C)(C(=O)O)[C@@H]1CC2 [Wu108, (1R,4aS,10aR)-6-fluoro-7-isopropyl-1,4a-dimethyl-1,2,3,4,4a,9,10,10a-octahydrophenanthrene-1-carboxylic acid] | −10.4
CC(C)c1cc(Cl)c2c(c1Cl)CC[C@H]1[C@](C)(C(=O)O)CCC[C@]21C [Wu112] | −14.7
CC(C)c1ccc2c(c1F)C(=O)C[C@H]1[C@](C)(C(=O)O)CCC[C@]21C [Wu113] | −3.6
C=CCON=C1CC2C(C)(C(=O)O)CCCC2(C)c2c(Cl)cc(C(C)C)c(Cl)c21 (centres unmarked) [Wu114] | −13.3
C[C@@]1(C(=O)O)CCC[C@]2(C)c3ccc(Cl)c(Cl)c3CCC12 (stereo partly drawn) [Wu115, (1R,4aS)-7,8-dichloro-1,4a-dimethyl-1,2,3,4,4a,9,10,10a-octahydrophenanthrene-1-carboxylic acid] | −24.2
CC(C)c1cc2c(cc1F)[C@@]1(C)CCC[C@@](C)(C(=O)O)[C@@H]1CC2=O [Wu116] | −4.4
C=Cc1cc2c(cc1C(C)C)C(=O)C[C@H]1[C@](C)(C(=O)O)CCC[C@]21C [Wu118] | 0.2
C=Cc1cc2c(cc1C(C)C)/C(=N/OC)CC1[C@](C)(C(=O)O)CCC[C@]21C (stereo partly drawn) [Wu119, (1R,4aS,E)-7-isopropyl-9-(methoxyimino)-1,4a-dimethyl-6-vinyl-1,2,3,4,4a,9,10,10a-octahydrophenanthrene-1-carboxylic acid] | −30.3
